Assay results as given in the supplement of paper PMC9265050, “Inhibition of RNA Binding in SND1 Increases the Levels of miR-1-3p and Sensitizes Cancer Cells to Navitoclax” (Cancers, 2022).

Tested on: SW480
Experiment: drug sensitivity score (DSS, integrated dose-response area); higher = more sensitive (stronger viability reduction); extreme values may be limits of the assay
Summary of the method: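 After 7 days of induction with 0.1 µg/mL doxycycline, SW480 cells stably harbouring inducible control or SND1-targeting shRNA were plated at 1000 cells per well in 384-well plates preloaded with 525 small-molecule inhibitors at five concentrations. CellTiter-Glo viability readings were taken 72 h later. Drug sensitivity scores come from integrating the area under a fitted non-linear dose–response model.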

[1] = shRNA: SND1 shRNA1 (SND1 silenced)
[2] = shRNA: SND1 shRNA2 (SND1 silenced)
[3] = shRNA: control shRNA (non-targeting)

| Structure (SMILES) | drug sensitivity score [1] [DSS] | drug sensitivity score [2] [DSS] | drug sensitivity score [3] [DSS] |
| --- | --- | --- | --- |
| O=C(Nc1c[nH]nc1-c1nc2ccc(CN3CCOCC3)cc2[nH]1)NC1CC1 [AT9283] | 3.6 | 0 | 0.6 |
| CN[C@@H](C)C(=O)N[C@H]1CN(C(=O)CC(C)C)CC[C@H]2CC[C@@H](C(=O)NC(c3ccccc3)c3ccccc3)N2C1=O [AT-406] | 0 | 0 | 0 |
| CC[C@H](CC#N)OC(=O)N[C@@H](C)c1cccc(NC(=O)Nc2ccc(-c3cnco3)c(OC)c2)c1 [AVN944] | 13.4 |  | 12.3 |
| COc1cc(N2CCN(C)CC2)ccc1Nc1nccc(-c2cn(C)c3cnccc23)n1 [AZ191] | 6.8 |  | 7.9 |
| COc1cc(OC2CCN(C)CC2)ccc1Nc1ncc2c(n1)n(C1CCCC1)c(=O)n2C [AZ 3146] | 10.9 | 10.6 | 9.5 |
| CC(C)Oc1cc(Nc2nc(N[C@@H](C)c3ccc(F)cn3)ncc2Cl)n[nH]1 [AZ-23] | 3.1 | 1.9 | 4.5 |
| N[C@@H]1CCCN(c2c(/C=C3\SC(=O)NC3=O)cccc2-c2ccccc2)C1 [AZD1208] | 0 |  | 0 |
| Cc1cc(Nc2nc(N[C@@H](C)c3ncc(F)cn3)ncc2Cl)[nH]n1 [AZD1480] | 0.6 | 0 | 1.1 |
| CNC(=O)c1cccc(-c2ccc3c(N4CCOC[C@@H]4C)nc(N4CCOC[C@@H]4C)nc3n2)c1 [AZD2014] | 13.2 | 12.6 | 9.6 |
| COc1cc(CCc2cc(NC(=O)c3ccc(N4CC(C)NC(C)C4)cc3)n[nH]2)cc(OC)c1 (centres undefined) [AZD4547] | 2.9 | 0 | 1.6 |
| CN(C)C(=O)c1ccc(S(=O)(=O)c2ccc(NC(=O)[C@@](C)(O)C(F)(F)F)c(Cl)c2)cc1 [AZD7545] | 0 | 2.4 | 0 |
| NC(=O)Nc1cc(-c2cccc(F)c2)sc1C(=O)N[C@H]1CCCNC1 [AZD7762] | 7.8 | 8.6 | 8.7 |
| COc1ccc(-c2ccc3c(N4CCOC[C@@H]4C)nc(N4CCOC[C@@H]4C)nc3n2)cc1CO [AZD8055] | 20.6 | 19.2 | 14.9 |
| N#Cc1ccc2[nH]c(O)c(-c3ccc(CN4CCOCC4)cn3)c2c1 [AZD-1080] | 1.3 |  | 1.1 |
| Cc1ncc(-c2ccnc(Nc3ccc(S(C)(=O)=O)cc3)n2)n1C(C)C [AZD-5438] | 11.8 |  | 12.7 |
| Cc1cc([C@@H](C)Nc2ccccc2C(=O)O)c2nc(N3CCOCC3)cc(=O)n2c1 [AZD-6482] | 0 | 4.3 | 3 |
| C[C@@H](Nc1cc(F)cc(F)c1)c1cc(C(=O)N(C)C)cc2c(=O)cc(N3CCOCC3)oc12 [AZD-8186] | 0 | 0 | 0 |
| Cc1cc(C(=O)NOCCO)c(Nc2ccc(I)cc2F)n(C)c1=O [AZD-8330] | 32.4 | 22.9 | 18.4 |
| CCN1CCN(Cc2ccc(Nc3ncc(F)c(-c4cc(F)c5nc(C)n(C(C)C)c5c4)n3)nc2)CC1 [Abemaciclib] | 4 | 0.2 | 4.1 |
| CN(C)Cc1c(C(=O)NCCOc2ccc(C(=O)NO)cc2)oc2ccccc12 [Abexinostat] | 21.3 | 16.4 | 19.4 |
| C[C@]12CC[C@H](O)CC1=CC[C@@H]1[C@@H]2CC[C@]2(C)C(c3cccnc3)=CC[C@@H]12 [Abiraterone] | 0 | 0 | 0 |
| CN(C)C/C=C/C(=O)Nc1cc2c(Nc3ccc(F)c(Cl)c3)ncnc2cc1O[C@H]1CCOC1 [Afatinib] | 2.1 | 1.8 | 1.2 |
| Cn1ncc(Cl)c1-c1cc(C(=O)N[C@H](CN)Cc2cccc(F)c2)sc1Cl [Afuresertib] | 0 | 2 | 0 |
| COc1cccc2c1C(=O)c1c(O)c3c(c(O)c1C2=O)C[C@@](O)(/C(CO)=N/NC(=O)CCCCCN1C(=O)C=CC1=O)C[C@@H]3O[C@H]1C[C@H](N)[C@H](O)[C@H](C)O1 [Aldoxorubicin] | 7.5 | 5.7 | 8.4 |
| CCc1cc2c(cc1N1CCC(N3CCOCC3)CC1)C(C)(C)c1[nH]c3cc(C#N)ccc3c1C2=O [Alectinib] | 0 | 0 | 0 |

| Structure (SMILES) | drug sensitivity score [1] [DSS] | drug sensitivity score [2] [DSS] | drug sensitivity score [3] [DSS] |
| --- | --- | --- | --- |
| COc1cc(Nc2ncc3c(n2)-c2ccc(Cl)cc2C(c2c(F)cccc2OC)=NC3)ccc1C(=O)O [Alisertib] | 12.6 | 4.4 | 6.5 |
| Oc1ncnc2[nH]ncc12 [Allopurinol] | 0.2 | 0 | 1.2 |
| Cc1nc(NC(=O)N2CCC[C@H]2C(N)=O)sc1-c1ccnc(C(C)(C)C(F)(F)F)c1 [Alpelisib] | 2.8 | 5.2 | 4.3 |
| CN(C)c1nc(N(C)C)nc(N(C)C)n1 [Altretamine] | 0 | 0 | 0 |
| CO[C@H]1/C=C\C=C(/C)C(=O)NC2=CC(=O)C(NCCN(C)C)=C(C[C@@H](C)C[C@H](OC)[C@H](O)[C@@H](C)/C=C(\C)[C@@H]1OC(N)=O)C2=O [Alvespimycin] | 7 | 6 | 7.9 |
| CN1CC[C@H](c2c(O)cc(O)c3c(=O)cc(-c4ccccc4Cl)oc23)[C@H](O)C1 [Alvocidib] | 21.9 | 20.3 | 20.4 |
| CCC1(c2ccc(N)cc2)CCC(=O)NC1=O (centres undefined) [Aminoglutethimide] | 0 | 0 | 0 |
| CN(C)CCN1C(=O)c2cccc3cc(N)cc(c23)C1=O [Amonafide] | 8.8 | 5.2 | 7.8 |
| COc1cc(NS(C)(=O)=O)ccc1Nc1c2ccccc2nc2ccccc12 [Amsacrine] | 8.6 | 3.7 | 7 |
| S=C(NCc1ccc2c(c1)OCO2)N1CCN(c2ncnc3c2oc2ccccc23)CC1 [Amuvatinib] | 3.9 | 6.4 | 6.7 |
| O=C1CN2Cc3c(ccc(Cl)c3Cl)N=C2N1 [Anagrelide] | 0 | 0 | 0 |
| CC(C)(C#N)c1cc(Cn2cncn2)cc(C(C)(C)C#N)c1 [Anastrozole] | 0 | 0 | 0 |
| N#CC1(c2ccc(NC(=O)c3cccnc3NCc3ccncc3)cc2)CCCC1 [Apatinib] | 0 | 0 | 0 |
| Cc1c(CN2CCN(C(=O)[C@H](C)O)CC2)sc2c(N3CCOCC3)nc(-c3cnc(N)nc3)nc12 [Apitolisib] | 11 | 9.3 | 6.6 |
| CC(C)c1c(C(=O)Nc2ccccc2)c(-c2ccccc2)c(-c2ccc(F)cc2)n1CC[C@@H](O)C[C@@H](O)CC(=O)O [Atorvastatin] | 4.9 |  | 7.6 |
| CC(=O)OC[C@H]1O[C@@H]([S-])[C@H](OC(C)=O)[C@@H](OC(C)=O)[C@@H]1OC(C)=O.CCP(CC)CC.[Au+] [Auranofin] | 6.2 | 8.8 | 8.7 |
| CNC(=O)c1ccccc1Sc1ccc2c(/C=C/c3ccccn3)n[nH]c2c1 [Axitinib] | 6 | 2.8 | 5.4 |
| Nc1ncn([C@@H]2O[C@H](CO)[C@@H](O)[C@H]2O)c(=O)n1 [Azacitidine] | 3.7 | 4.4 | 2.9 |
| Cc1cc(-c2nc(-c3ccc(OC(F)(F)F)cc3)no2)nn1Cc1ccnc(N2CCN(C3CC3)CC2)c1 [BAY 87-2243] | 0.3 | 21.9 | 1.1 |
| Nc1nc(Nc2ccc3c(c2)CC[C@@H](N2CCCC2)CC3)nn1-c1cc2c(nn1)-c1ccccc1CCC2 [BGB324] | 9 | 5.9 | 9.6 |
| CC[C@@H]1C(=O)N(C)c2cnc(Nc3ccc(C(=O)NC4CCN(C)CC4)cc3OC)nc2N1C1CCCC1 [BI 2536] | 16.8 | 18.5 | 19.9 |
| COc1c(C)cnc(Cn2cnc3c(Cl)nc(N)nc32)c1C [BIIB021] | 17.4 | 18.4 | 17.8 |
| O=C(Nc1cccc(Nc2ncc(Br)c(NCCc3cnc[nH]3)n2)c1)N1CCCC1 [BX-912] | 6.7 | 6.5 | 8.5 |
| Cc1ccc(NC(=O)c2ccc(CN3CC[C@H](N(C)C)C3)c(C(F)(F)F)c2)cc1Nc1nccc(-c2cncnc2)n1 [Bafetinib] | 0.3 | 0 | 0 |
| CCS(=O)(=O)N1CC(CC#N)(n2cc(-c3ncnc4[nH]ccc34)cn2)C1 [Baricitinib] | 0 | 0.3 | 1 |
